# Test results as given in patent US12226433B2, “Treatment of irritable bowel syndrome with molybdenum” (The Johns Hopkins University, priority 2018, dated 2025).
# How the values were obtained:
# IBS mouse model = assay: Visceral motor reflex (VMR) response to colorectal distention (CRD), pain sensitivity in IBS mouse model; assay type: in vivo; details: 0.2 ml sodium molybdate (10 mg/ml) cecal infusion for 7 days; for pain sensitivity (hyperalgesia) assessed by VMR response to CRD: IBS mice, CRD 15, 30, 50 and 70 mmHg, vs IBS-vehicle, P<0.05
# Protocol: (§1) IBS mice were generated by colorectal infusion of 0.5% acetic acid (20 μl) at postnatal day 10. The mice were then allowed to grow up until adult. The adult IBS and control mice were undergone a surgery to insert a catheter into the cecum. The catheter made from PE10 tubing with 8 cm long. It was insert into cecum about 0.5 cm and then tunneled to the back of the mouse after sutured on the cecum wall ensuring no cecum content leaking. Then, a pair of electrodes were inserted into the external oblique (abdominal) muscle for pain sensitivity test. The mice received 0.2 ml sodium molybdate (10 mg/ml) through cecal infusion starting on the day after surgery for 7 days. One day after the last infusion, a visceral motor reflex (VMR) response to colorectal distention (CRD) was conducted to assess the pain sensitivity. A balloon was inserted into colorectum through the anus for CRD. The VMR is measured using an electromyographic (EMG) recording that response to CRD with 15, 30, 50 and 70 mmHg. To assess the microbiota, stool were collected before and after the molybdate treatment. Microbiome were examined by 16S rRNA sequencing.
# Desulfovibrio = assay: Stool microbiome examined by 16S rRNA sequencing before and after molybdate treatment; assay type: in vivo, mouse; details: molybdate treated control and IBS groups; stool before and after 7 days of cecal infusion; not reduced in saline treated groups
# Protocol: as §1
smiles,measurement,setting,value
[Na+].[Na+].[O]=[Mo](=[O])([O-])[O-] [sodium molybdate],pain sensitivity (hyperalgesia) assessed by VMR response to CRD,IBS mouse model,reduced hyperalgesia
same,pain sensitivity (hyperalgesia) assessed by VMR response to CRD,IBS mouse model; listed as molybdate,significantly reduced
same,pain sensitivity assessed by VMR response to CRD,"IBS mouse model; control mice, molybdate vs saline treated",no significant different
same,sulfate-reducing bacteria Desulfovibrio in stool (16S rRNA sequencing),Desulfovibrio,reduced
